How the values were obtained:
PARP1 over PARP2 = settings: PARP1 inhibitor and trapper; cited from earlier work
PARP1 = PARP1 (Homo sapiens, UniProt P09874); assay: PARP1 biochemical DELFIA assay (auto-PARylation)
Chain of PARP1 (P09874 whole entry): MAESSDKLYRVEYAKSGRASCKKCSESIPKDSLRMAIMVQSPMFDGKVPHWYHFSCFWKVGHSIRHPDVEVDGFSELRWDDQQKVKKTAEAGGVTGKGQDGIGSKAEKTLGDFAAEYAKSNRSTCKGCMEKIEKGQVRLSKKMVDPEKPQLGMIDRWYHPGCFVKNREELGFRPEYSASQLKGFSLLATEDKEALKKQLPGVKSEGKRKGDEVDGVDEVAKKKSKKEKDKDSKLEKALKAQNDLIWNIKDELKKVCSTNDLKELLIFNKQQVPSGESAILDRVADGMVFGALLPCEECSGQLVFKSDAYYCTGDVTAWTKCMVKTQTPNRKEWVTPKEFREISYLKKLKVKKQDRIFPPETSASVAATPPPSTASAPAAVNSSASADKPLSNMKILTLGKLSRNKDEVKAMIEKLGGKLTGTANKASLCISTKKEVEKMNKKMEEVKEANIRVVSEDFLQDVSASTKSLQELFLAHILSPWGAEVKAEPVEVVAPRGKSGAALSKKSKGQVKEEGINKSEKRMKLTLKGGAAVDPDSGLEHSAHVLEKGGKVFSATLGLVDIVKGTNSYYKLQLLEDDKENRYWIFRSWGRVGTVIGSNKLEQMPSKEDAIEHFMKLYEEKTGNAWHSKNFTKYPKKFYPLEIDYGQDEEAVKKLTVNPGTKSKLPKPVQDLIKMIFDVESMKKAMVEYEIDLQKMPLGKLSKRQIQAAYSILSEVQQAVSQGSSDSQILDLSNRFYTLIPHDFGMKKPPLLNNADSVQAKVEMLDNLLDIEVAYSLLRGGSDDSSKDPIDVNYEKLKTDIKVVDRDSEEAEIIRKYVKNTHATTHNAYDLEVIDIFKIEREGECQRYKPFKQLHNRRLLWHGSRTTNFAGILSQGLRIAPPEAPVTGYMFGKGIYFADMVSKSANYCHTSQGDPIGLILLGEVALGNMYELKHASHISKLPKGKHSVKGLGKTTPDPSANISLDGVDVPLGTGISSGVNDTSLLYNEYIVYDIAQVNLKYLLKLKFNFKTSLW
Method: Prior to assay, wells were washed 3×5 min in coating wash buffer.
% data was fitted to a non-linear regression equation (log inhibitor vs response-variable slope 4-parameters) to obtain IC50 values.

Molecule | IC50 (PARP1; Table 1A) [nM] | other results
CCc1cc2ncc(CN3CCN(c4ccc(C(=O)NC)nc4)CC3)cc2[nH]c1=O [AZD5305] |  | selectivity over PARP2 (PARP1 over PARP2): 500 fold
O=C(CN1CCCC1c1cc(C(F)(F)F)c(=O)[nH]n1)N1CCN(c2ccc(C(F)(F)F)cn2)CC1 (single isomer, unassigned) [Compound 42a] | 1000 to 10000 | 
CC1(C)CC(c2cc(C(F)(F)F)c(=O)[nH]n2)CN(CCC(=O)N2CCN(c3ncc(C(F)(F)F)cn3)CC2)C1 (single isomer, unassigned) [Compound 87b] | 10 to 100 | 
O=C(CN1CCCC1c1cc(C(F)(F)F)c(=O)[nH]n1)N1CCN(c2nc3cc(F)ccc3o2)CC1 (single isomer, unassigned) [Compound 93b] | 1000 to 10000 | 
CNC(=O)c1ccc(N2CCN(C(=O)CCN3CCCC(c4cc(C(F)(F)F)c(=O)[nH]n4)C3)CC2)nc1 (single isomer, unassigned) [Compound 28a] |  | IC50 (PARP1; Table 1): 100 to 1000 nM
O=C(CN1CCCC1c1cc(C(F)(F)F)c(=O)[nH]n1)N1CC2(CCN(c3ncc(C(F)(F)F)cn3)CC2)C1 (single isomer, unassigned) [Compound 110b] | 1000 to 10000 | 
O=C(CN1CCCC1c1cc(C(F)(F)F)c(=O)[nH]n1)N1CCN(c2ncc(F)cc2Cl)CC1 (single isomer, unassigned) [Compound 116b] | 1000 to 10000 | 
CC1(C)C[C@H](c2cc(C(F)(F)F)c(=O)[nH]n2)N(CC(=O)N2CCN(c3ncc(C(F)(F)F)cn3)CC2)C1 [Compound 94a] | 10 to 100 | 
O=C(CCN1CCCC(c2cc(C(F)(F)F)c(=O)[nH]n2)C1)N1CCN(c2ncc(Cl)cn2)CC1 (racemic) [Compound 20rac] |  | IC50 (PARP1; Table 1): 100 to 1000 nM
O=C(CCN1CCCC1c1cc(C(F)(F)F)c(=O)[nH]n1)N1CCN(c2ncc(C(F)(F)F)cn2)CC1 (single isomer, unassigned) [Compound 18b, 6-(1-(3-oxo-3-(4-(5-(trifluoromethyl)pyrimidin-2-yl)piperazin-1-yl)propyl)pyrrolidin-2-yl)-4-(trifluoromethyl)pyridazin-3(2H)-one] |  | IC50 (PARP1; Table 1): 10 to 100 nM
O=C(CN1CCCC1c1cc(C(F)(F)F)c(=O)[nH]n1)N1CCN(c2nc3ccc(Cl)cc3o2)CC1 (single isomer, unassigned) [Compound 85a] | ≤ 10 | 
O=C(CN1CCCC1c1cc(C(F)(F)F)c(=O)[nH]n1)N1CCN(c2ccc(C(F)(F)F)cn2)CC1 (single isomer, unassigned) [Compound 42b] | 10 to 100 | 
O=C(CN1CCCC1c1cc(C(F)(F)F)c(=O)[nH]n1)N1CCN(c2ncc(C3CC3)cn2)CC1 (single isomer, unassigned) [Compound 69a] | 10 to 100 | 
O=C(CN1CCCC1c1c[nH]c(=O)c(C(F)(F)F)c1)N1CCN(c2ncc(C(F)(F)F)cn2)CC1 (racemic) [Compound 60rac, 5-(1-(2-oxo-2-(4-(5-(trifluoromethyl)pyrimidin-2-yl)piperazin-1-yl)ethyl)pyrrolidin-2-yl)-3-(trifluoromethyl)pyridin-2(1H)-one] | 100 to 1000 | 
CCc1[nH]c(=O)c(C(F)(F)F)cc1C1CCCN1CC(=O)N1CCN(c2ncc(C(F)(F)F)cn2)CC1 (single isomer, unassigned) [Compound 105a] | 1000 to 10000 | 
CNC(=O)c1ccc(N2CCN(C(=O)CN3CCCC3c3cc(C(F)(F)F)c(=O)[nH]n3)CC2)cn1 (single isomer, unassigned) [Compound 37b] | 1000 to 10000 | 

Molecule | IC50 (PARP1; Table 1A) [nM] | other results
CNC(=O)c1ccc(N2CCN(C(=O)CN3CCCC3c3cc(C(F)(F)F)c(=O)[nH]n3)CC2)nc1 (single isomer, unassigned) [Compound 55b] | 100 to 1000 | 
O=C(CN1CCCC1c1n[nH]c(=O)c2ccccc12)N1CCN(c2ncc(C(F)(F)F)cn2)CC1 (single isomer, unassigned) [Compound 38b, 4-(1-(2-oxo-2-(4-(5-(trifluoromethyl)pyrimidin-2-yl)piperazin-1-yl)ethyl)pyrrolidin-2-yl)phthalazin-1(2H)-one] | 1000 to 10000 | 
O=C(CCN1CCC(c2cc(C(F)(F)F)c(=O)[nH]n2)C1)N1CCN(c2ncc(C(F)(F)F)cn2)CC1 (single isomer, unassigned) [Compound 7a] |  | IC50 (PARP1; Table 1): 100 to 1000 nM
CNC(=O)c1ccc(N2CCN(C(=O)CCN3CCC(c4n[nH]c(=O)c5ccccc45)CC3)CC2)cn1 [Compound 48, N-methyl-5-(4-(3-(4-(4-oxo-3,4-dihydrophthalazin-1-yl)piperidin-1-yl)propanoyl)piperazin-1-yl)picolinamide] | ≤ 10 | 
O=C(CN1CCCC1c1n[nH]c(=O)c2ccccc12)N1CCN(c2ncc(C(F)(F)F)cn2)CC1 (single isomer, unassigned) [Compound 38a, 4-(1-(2-oxo-2-(4-(5-(trifluoromethyl)pyrimidin-2-yl)piperazin-1-yl)ethyl)pyrrolidin-2-yl)phthalazin-1(2H)-one] | 100 to 1000 | 
O=C(CN1CCCC(c2cc(C(F)(F)F)c(=O)[nH]n2)C1)N1CCN(c2ncc(C(F)(F)F)cn2)CC1 (single isomer, unassigned) [Compound 14a] |  | IC50 (PARP1; Table 1): 10 to 100 nM
O=C(CCN1CC2(c3cc(C(F)(F)F)c(=O)[nH]n3)CC1C2)N1CCN(c2ncc(C(F)(F)F)cn2)CC1 [Compound 103] | 100 to 1000 | 
6-(1-(3-oxo-3-(4-(5-(trifluoromethyl)pyrimidin-2-yl)piperazin-1-yl)propyl)azetidin-2-yl)-4-(trifluoromethyl)pyridazin-3(2H)-one [Compound 5rac] |  | IC50 (PARP1; Table 1): 10 to 100 nM
O=C(CN1CCCC1c1cc(C(F)(F)F)c(=O)[nH]n1)N1CCN(c2ncc(OC(F)F)cn2)CC1 (single isomer, unassigned) [Compound 118a] | ≤ 10 | 
O=C(CN1CCCC1c1cc(C(F)(F)F)c(=O)[nH]n1)N1CCN(c2ncc(C(F)(F)F)cn2)CC1 (single isomer, unassigned) [Compound 24a, 6-(1-(2-oxo-2-(4-(5-(trifluoromethyl)pyrimidin-2-yl)piperazin-1-yl)ethyl)pyrrolidin-2-yl)-4-(trifluoromethyl)pyridazin-3(2H)-one] |  | IC50 (PARP1; Table 1): 1000 to 10000 nM
O=C(CN1CCCC1c1cc(C(F)(F)F)c(=O)[nH]n1)N1CCN(c2cnc(C(F)(F)F)cn2)CC1 (single isomer, unassigned) [Compound 45a] | 10 to 100 | 
O=C(CN1CCCC1c1cc(C(F)(F)F)c(=O)[nH]n1)N1CCN(c2ncc(Cl)cn2)CC1 (single isomer, unassigned) [Compound 35b] | 1000 to 10000 | 
O=C(CN1CCOCC1c1cc(C(F)(F)F)c(=O)[nH]n1)N1CCN(c2ncc(C(F)(F)F)cn2)CC1 (single isomer, unassigned) [Compound 88b] | 100 to 1000 | 
CCc1cc(C2CCCN(CCC(=O)N3CCN(c4ncc(C(F)(F)F)cn4)CC3)C2)c[nH]c1=O (racemic) [Compound 22rac, 3-ethyl-5-(1-(3-oxo-3-(4-(5-(trifluoromethyl)pyrimidin-2-yl)piperazin-1-yl)propyl)piperidin-3-yl)pyridin-2(1H)-one] |  | IC50 (PARP1; Table 1): 100 to 1000 nM
N#Cc1cc(C2CCCN2CC(=O)N2CCN(c3ncc(C(F)(F)F)cn3)CC2)n[nH]c1=O (single isomer, unassigned) [Compound 98b, 3-oxo-6-(1-(2-oxo-2-(4-(5-(trifluoromethyl)pyrimidin-2-yl)piperazin-1-yl)ethyl)pyrrolidin-2-yl)-2,3-dihydropyridazine-4-carbonitrile] | 1000 to 10000 | 
N#Cc1cnc(N2CCN(C(=O)CN3CCCC3c3cc(C(F)(F)F)c(=O)[nH]n3)CC2)nc1 (single isomer, unassigned) [Compound 36a] | 10 to 100 | 

Reference: US20260193238A1, “PHARMACEUTICAL COMPOUNDS AS PARP7 AND/OR PARP1 INHIBITORS” (Duke Street Bio Limited, priority 2022, published 2026)
